Legend:
Escherichia coli [1] = assay: Antibacterial activity against Escherichia coli MG1655 harboring pKatG-lux assessed as maximum induction factor at 10^-11 M after 120 mins by luminometric analysis; type: functional, K-12 substr. MG1655
Escherichia coli [2] = assay: Antibacterial activity against Escherichia coli MG1655 harboring pSoxS-lux assessed as maximum induction factor at 10^-8 M after 120 mins by luminometric analysis; type: functional, K-12 substr. MG1655
Vibrio sp. [3] = assay: Antibacterial activity against Vibrio aqamarinus VKPM B-11245 assessed as toxicity index at 10^-13 M measured for 2 hrs by luminometric analysis; type: functional
Escherichia coli [4] = assay: Antibacterial activity against Escherichia coli MG1655 harboring pColD-lux assessed as maximum induction factor at 10^-12 M after 120 mins by luminometric analysis; type: functional, K-12 substr. MG1655
Escherichia coli [5] = assay: Antibacterial activity against Escherichia coli MG1655 harboring pGrpE-lux assessed as maximum induction factor at 10^-11 M after 120 mins by luminometric analysis; type: functional, K-12 substr. MG1655
Escherichia coli [6] = assay: Antibacterial activity against Escherichia coli MG1655 harboring pGrpE-lux assessed as maximum induction factor at 10^-4 M after 120 mins by luminometric analysis; type: functional, K-12 substr. MG1655
[7] = Activation of quorum sensing system luxR in Escherichia coli MG1655 harboring pVFR1-lux assessed as maximum induction factor at 10^-14 M after 120 mins by luminometric analysis; settings: Escherichia coli str. K-12 substr. MG1655
Escherichia coli [8] = assay: Antibacterial activity against Escherichia coli MG1655 harboring pGrpE-lux assessed as maximum induction factor at 10^-12 M after 120 mins by luminometric analysis; type: functional, K-12 substr. MG1655
Escherichia coli [9] = assay: Antibacterial activity against Escherichia coli MG1655 harboring pIbpA-lux assessed as maximum induction factor at 10^-12 M after 120 mins by luminometric analysis; type: functional, K-12 substr. MG1655
Vibrio sp. [10] = assay: Antibacterial activity against Vibrio aqamarinus VKPM B-11245 assessed as toxicity index at 10^-6 M measured for 2 hrs by luminometric analysis; type: functional
Escherichia coli [11] = assay: Antibacterial activity against Escherichia coli MG1655 harboring pXen7 assessed as toxicity index at 10^-14 M measured for 2 hrs by luminometric analysis; type: functional, K-12 substr. MG1655
Escherichia coli [12] = assay: Antibacterial activity against Escherichia coli MG1655 harboring pSoxS-lux assessed as maximum induction factor at 10^-9 M after 120 mins by luminometric analysis; type: functional, K-12 substr. MG1655
Escherichia coli [13] = assay: Antibacterial activity against Escherichia coli MG1655 harboring pColD-lux assessed as maximum induction factor at 10^-13 M after 120 mins by luminometric analysis; type: functional, K-12 substr. MG1655
Escherichia coli [14] = assay: Antibacterial activity against Escherichia coli MG1655 harboring pKatG-lux assessed as maximum induction factor at 10^-3 M after 120 mins by luminometric analysis; type: functional, K-12 substr. MG1655
Escherichia coli [15] = assay: Antibacterial activity against Escherichia coli MG1655 harboring pIbpA-lux assessed as maximum induction factor at 10^-6 M after 120 mins by luminometric analysis; type: functional, K-12 substr. MG1655
Escherichia coli [16] = assay: Antibacterial activity against Escherichia coli MG1655 harboring pRecA-lux assessed as maximum induction factor at 10^-14 M after 120 mins by luminometric analysis; type: functional, K-12 substr. MG1655
Escherichia coli [17] = assay: Antibacterial activity against Escherichia coli MG1655 harboring pKatG-lux assessed as maximum induction factor at 10^-8 M after 120 mins by luminometric analysis; type: functional, K-12 substr. MG1655
Escherichia coli [18] = assay: Antibacterial activity against Escherichia coli MG1655 harboring pGrpE-lux assessed as maximum induction factor at 10^-3 M after 120 mins by luminometric analysis; type: functional, K-12 substr. MG1655
Escherichia coli [19] = assay: Antibacterial activity against Escherichia coli MG1655 harboring pXen7 assessed as toxicity index at 10^-11 M measured for 2 hrs by luminometric analysis; type: functional, K-12 substr. MG1655
Escherichia coli [20] = assay: Antibacterial activity against Escherichia coli MG1655 harboring pSoxS-lux assessed as maximum induction factor at 10^-14 M after 120 mins by luminometric analysis; type: functional, K-12 substr. MG1655
Escherichia coli [21] = assay: Antibacterial activity against Escherichia coli MG1655 harboring pRecA-lux assessed as maximum induction factor at 10^-13 M after 120 mins by luminometric analysis; type: functional, K-12 substr. MG1655
[22] = Activation of quorum sensing system luxR in Escherichia coli MG1655 harboring pVFR1-lux assessed as maximum induction factor at 10^-11 M after 120 mins by luminometric analysis; settings: Escherichia coli str. K-12 substr. MG1655
Escherichia coli [23] = assay: Antibacterial activity against Escherichia coli MG1655 harboring pRecA-lux assessed as maximum induction factor at 10^-11 M after 120 mins by luminometric analysis; type: functional, K-12 substr. MG1655
Escherichia coli [24] = assay: Antibacterial activity against Escherichia coli MG1655 harboring pSoxS-lux assessed as maximum induction factor at 10^-6 M after 120 mins by luminometric analysis; type: functional, K-12 substr. MG1655
Escherichia coli [25] = assay: Antibacterial activity against Escherichia coli MG1655 harboring pColD-lux assessed as maximum induction factor at 10^-9 M after 120 mins by luminometric analysis; type: functional, K-12 substr. MG1655
Escherichia coli [26] = assay: Antibacterial activity against Escherichia coli MG1655 harboring pSoxS-lux assessed as maximum induction factor at 10^-5 M after 120 mins by luminometric analysis; type: functional, K-12 substr. MG1655
Escherichia coli [27] = assay: Antibacterial activity against Escherichia coli MG1655 harboring pRecA-lux assessed as maximum induction factor at 10^-12 M after 120 mins by luminometric analysis; type: functional, K-12 substr. MG1655
Escherichia coli [28] = assay: Antibacterial activity against Escherichia coli MG1655 harboring pKatG-lux assessed as maximum induction factor at 10^-4 M after 120 mins by luminometric analysis; type: functional, K-12 substr. MG1655
Escherichia coli [29] = assay: Antibacterial activity against Escherichia coli MG1655 harboring pXen7 assessed as toxicity index at 10^-8 M measured for 2 hrs by luminometric analysis; type: functional, K-12 substr. MG1655

O=[N+]([O-])c1cc([N+](=O)[O-])c2no[n+]([O-])c2c1Sc1nc2ccccc2s1
Activity (Escherichia coli [1]): 1.03
Activity (Escherichia coli [2]): 1.27
Activity (Vibrio sp. [3]): 3.44
Activity (Escherichia coli [4]): 1.1
Activity (Escherichia coli [5]): 1.05
Activity (Escherichia coli [6]): 0.51
Activity [7]: 2.87
Activity (Escherichia coli [8]): 1.31
Activity (Escherichia coli [9]): 1.25
Activity (Vibrio sp. [10]): 73.17
Activity (Escherichia coli [11]): 2.74
Activity (Escherichia coli [12]): 1.08
Activity (Escherichia coli [13]): 1.01
Activity (Escherichia coli [14]): 0.18
Activity (Escherichia coli [15]): 1.28
Activity (Escherichia coli [16]): 1.07
Activity (Escherichia coli [17]): 0.84
Activity (Escherichia coli [18]): 0.35
Activity (Escherichia coli [19]): 0
Activity (Escherichia coli [20]): 1.2
Activity (Escherichia coli [21]): 0.98
Activity [22]: 1.51
Activity (Escherichia coli [23]): 1.03
Activity (Escherichia coli [24]): 1.28
Activity (Escherichia coli [25]): 1.05
Activity (Escherichia coli [26]): 0.99
Activity (Escherichia coli [27]): 0.94
Activity (Escherichia coli [28]): 0.3
Activity (Escherichia coli [29]): 7.28

Reference: ChEMBL document CHEMBL3407459, “Synthesis and antimicrobial activity of novel structural hybrids of benzofuroxan and benzothiazole derivatives” (2015)
